Patent US20110294772A1, “USE OF CYCLOSQUARAMIDE COMPOUNDS AS ANTI-TUMOUR AGENTS” (priority 2008, published 2011)

Tested on: Jeko-1
Assay: cell viability assay
Assay type: cell-based, human
Settings: Homo sapiens, JeKo-1, 48 h, cell viability, total incubation period 48 h; read-out: IC50 (μM) against Jeko-1 cells
Procedure: The IC50 in cell viability assays were determined for some of the macrocycles prepared in Jeko-1 (B-cell lymphoma (MCL) type cells. With a total incubation period of 48 h.

| Compound | IC50 [µM] |
| --- | --- |
| CSCCC1Nc2c(c(=O)c2=O)NCCCN(C)CCCNc2c(c(=O)c2=O)NCCCN(C)CCCNc2c(c(=O)c2=O)NCCCN(C)CCCNc2c(c(=O)c2=O)NCCCN(C)CCCNc2c(c(=O)c2=O)NCCCNC1=O (stereo not drawn) [Compound 3] | 34 |
| CSCCC1Nc2c(c(=O)c2=O)NCCCN(C)CCCNc2c(c(=O)c2=O)NCCCN(C)CCCNc2c(c(=O)c2=O)NCCCN(C)CCCNc2c(c(=O)c2=O)NCCCN(C)CCCNc2c(c(=O)c2=O)NCCCN(C)CCCNc2c(c(=O)c2=O)NCCCNC1=O (stereo not drawn) [Compound 4] | 24 |

Same assay, conditions: cell viability, total incubation period 48 h; read-out: IC50 (μM) against Jeko-1 cells

| Compound | IC50 [µM] |
| --- | --- |
| CN1CCCNc2c(c(=O)c2=O)NCCCN(C)CCCNc2c(c(=O)c2=O)NCCCN(C)CCCNc2c(c(=O)c2=O)NCCCN(C)CCCNc2c(c(=O)c2=O)NCCCN(C)CCCNc2c(c(=O)c2=O)NCCCN(C)CCCNc2c(c(=O)c2=O)NCCC1 [Compound 5] | 50 |
| CN1CCCNc2c(c(=O)c2=O)NCCCN(C)CCCNc2c(c(=O)c2=O)NCCCN(C)CCCNc2c(c(=O)c2=O)NCCCN(C)CCCNc2c(c(=O)c2=O)NCCCN(C)CCCNc2c(c(=O)c2=O)NCCCN(C)CCCNc2c(c(=O)c2=O)NCCC1 [Compound 11] | 9.4 |
| CN1CCCNc2c(c(=O)c2=O)NCCCN(C)CCCNc2c(c(=O)c2=O)NCCCN(C)CCCNc2c(c(=O)c2=O)NCCCN(C)CCCNc2c(c(=O)c2=O)NCCCN(C)CCCNc2c(c(=O)c2=O)NCCCN(C)CCCNc2c(c(=O)c2=O)NCCC1 [Compound 1] | 27 |
| CN1CCCNc2c(c(=O)c2=O)NCCCN(C)CCCNc2c(c(=O)c2=O)NCCCN(C)CCCNc2c(c(=O)c2=O)NCCCN(C)CCCNc2c(c(=O)c2=O)NCCCN(C)CCCNc2c(c(=O)c2=O)NCCCN(C)CCCNc2c(c(=O)c2=O)NCCC1 [Compound 2] | 45 |
